Usually pEC50 stands for −log10 of the EC50, conventionally taken in molar units.

The text below walks through data of US20250228865A1, “COMPOUNDS FOR ENHANCING READ THROUGH OF GENES CONTAINING PREMATURE TERMINATION CODONS AND METHODS FOR MAKING AND USING THE SAME” (Sanofi US Services Inc., priority 2022, published 2025).

For assay [1], the system named is recombinant human CFTR carrying the premature stop codon (PTC) mutation G542X. Kind of assay: CFTR-PTC mutant translation readthrough, Nanoluc tagged CFTR luminescence (G542X cell line). Format: cell-based. Particulars: in combination with G418, G542X cell line; for CFTR G542X ACTIVITY Fold 10 μM G-418: fold over 10 μM G-418; for pEC50: 16HBE cells. The method, boiled down: (§1)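 Readthrough is the 48 h compound-induced luminescence increase scaled to that of maximal G418 (125-250 μM). Compounds run from 50 μM final in 2-fold steps, ±10 μM G418, on 16HBE lines carrying Nanoluc-tagged CFTR G542X (extracellular loop 4 tag) or R1162X (C-terminal tag), with 3 μM VX-809 present.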

The subject of assay [2] is recombinant human CFTR carrying the premature stop codon (PTC) mutation R1162X. Description: CFTR-PTC mutant translation readthrough, Nanoluc tagged CFTR luminescence (R1162X cell line). The conditions noted are these: for CFTR R1162X ACTIVITY Fold 10 μM G-418: fold over 10 μM G-418, in combination with G418; for pEC50: in combination with G418, 16HBE cells, read-out: CFTR R1162X ACTIVITY EC50. Format: cell-based. The method, boiled down:
as §1

pEC50: −log10 of the molar value.

For the molecule `Cc1cccc(C(F)(F)F)c1COc1ccc(-n2cnc(CO)n2)nc1`, in assay [1], the “CFTR G542X ACTIVITY Fold 10 μM G-418” value was “A′ (A′ = ≥10X)” and the negative logarithm of the EC50 (pEC50) was above 6.00. In addition, in assay [2], the “CFTR R1162X ACTIVITY Fold 10 μM G-418” value was “A′ (A′ = ≥10X)” and the pEC50 was above 6.00.

Consider `OCCN1CCN(c2ncc(OCc3c(Cl)cccc3Cl)cn2)CC1` [2-[4-[5-[(2,6-dichlorophenyl)methoxy]pyrimidin-2-yl]piperazin-1-yl]ethanol], for which, in assay [1], the “CFTR G542X ACTIVITY Fold 10 μM G-418” value is “A′ (A′ = ≥10X)” and the pEC50 is 5.00 to 6.00. Further, in assay [2], the “CFTR R1162X ACTIVITY Fold 10 μM G-418” value is given as “A′ (A′ = ≥10X)” and the pEC50 is 5.00 to 6.00.

For `NC(=O)CN1CCN(c2ncc(OCc3c(Cl)cccc3Cl)cn2)CC1` [2-[4-[5-[(2,6-dichlorophenyl)methoxy]pyrimidin-2-yl]piperazin-1-yl]acetamide], in assay [1], the “CFTR G542X ACTIVITY Fold 10 μM G-418” value was “B′ (B′ = ≥5X to <10X)” and the pEC50 is 5.00 to 6.00. Besides, in assay [2], the “CFTR R1162X ACTIVITY Fold 10 μM G-418” value is “B′ (B′ = ≥5X to <10X)” and the pEC50 was 5.00 to 6.00.

As for `CN1CC(=O)N(c2ccc(OCc3c(Cl)cccc3C(F)(F)F)cn2)C1=O`, in assay [1], the “CFTR G542X ACTIVITY Fold 10 μM G-418” value is reported as “A′ (A′ = ≥10X)” and the pEC50 was 5.00 to 6.00. Moreover, in assay [2], the “CFTR R1162X ACTIVITY Fold 10 μM G-418” value is “C′ (C′ = <5X)” and the pEC50 was 5.00 to 6.00.

`OCc1cn(-c2ncc(OCc3c(Cl)cccc3Cl)cn2)nn1` [[1-[5-[(2,6-dichlorophenyl)methoxy]pyrimidin-2-yl]triazol-4-yl]methanol]: in assay [1], the “CFTR G542X ACTIVITY Fold 10 μM G-418” value is reported as “A′ (A′ = ≥10X)” and the pEC50 is 5.00 to 6.00. For the same molecule, in assay [2], the “CFTR R1162X ACTIVITY Fold 10 μM G-418” value is recorded as “A′ (A′ = ≥10X)” and the negative logarithm of the EC50 (pEC50) is 5.00 to 6.00.

`Cn1cc(-c2ccc(OCc3c(Cl)cccc3Cl)cn2)nn1` [5-[(2,6-dichlorophenyl)methoxy]-2-(1-methyltriazol-4-yl)pyridine]: in assay [1], the “CFTR G542X ACTIVITY Fold 10 μM G-418” value is listed as “A′ (A′ = ≥10X)” and the pEC50 is 5.00 to 6.00. Moreover, in assay [2], the “CFTR R1162X ACTIVITY Fold 10 μM G-418” value was “A′ (A′ = ≥10X)” and the pEC50 was 5.00 to 6.00.

With `CC(=O)NC[C@H]1CN(c2ncc(OCc3c(C)cccc3C(F)(F)F)cn2)CCO1`, in assay [1], the “CFTR G542X ACTIVITY Fold 10 μM G-418” value is “A′ (A′ = ≥10X)” and the negative logarithm of the EC50 (pEC50) is above 6.00. For the same molecule, in assay [2], the “CFTR R1162X ACTIVITY Fold 10 μM G-418” value is recorded as “A′ (A′ = ≥10X)” and the pEC50 is 5.00 to 6.00.

`Cc1cccc(C(F)(F)F)c1COc1cnc(N2CCC(O)(c3ccccn3)CC2)nc1`: in assay [1], the “CFTR G542X ACTIVITY Fold 10 μM G-418” value is “A′ (A′ = ≥10X)” and the pEC50 was above 6.00. Moreover, in assay [2], the “CFTR R1162X ACTIVITY Fold 10 μM G-418” value is recorded as “A′ (A′ = ≥10X)” and the pEC50 is 5.00 to 6.00.

Regarding `CC1CN(c2ncc(OCc3c(Cl)cccc3Cl)cn2)CCC1O` (stereo not shown) [1-[5-[(2,6-dichlorophenyl)methoxy]pyrimidin-2-yl]-3-methyl-piperidin-4-ol], in assay [1], the “CFTR G542X ACTIVITY Fold 10 μM G-418” value was “A′ (A′ = ≥10X)” and the pEC50 is above 6.00. For the same molecule, in assay [2], the “CFTR R1162X ACTIVITY Fold 10 μM G-418” value was “A′ (A′ = ≥10X)” and the pEC50 is above 6.00.

As for `O=C1CN(c2ncc(OCc3c(Cl)cccc3C(F)(F)F)cn2)C(=O)N1`, in assay [1], the “CFTR G542X ACTIVITY Fold 10 μM G-418” value is reported as “A′ (A′ = ≥10X)” and the pEC50 was 5.00 to 6.00. Also, in assay [2], the “CFTR R1162X ACTIVITY Fold 10 μM G-418” value is “A′ (A′ = ≥10X)” and the pEC50 was 5.00 to 6.00.

On to `NC(=O)N1CCC(c2ncc(OCc3c(Cl)cccc3C(F)(F)F)cn2)CC1`, for which, in assay [1], the “CFTR G542X ACTIVITY Fold 10 μM G-418” value is on record as “A′ (A′ = ≥10X)” and the pEC50 was above 6.00. In addition, in assay [2], the “CFTR R1162X ACTIVITY Fold 10 μM G-418” value is reported as “A′ (A′ = ≥10X)” and the pEC50 was above 6.00.

Take `OCc1nc(-c2ccc(OCc3c(Cl)cccc3Cl)cc2)co1` [[4-[4-[(2,6-dichlorophenyl)methoxy]phenyl]oxazol-2-yl]methanol]: in assay [1], the “CFTR G542X ACTIVITY Fold 10 μM G-418” value is “A′ (A′ = ≥10X)” and the pEC50 was 5.00 to 6.00. In addition, in assay [2], the “CFTR R1162X ACTIVITY Fold 10 μM G-418” value is listed as “A′ (A′ = ≥10X)” and the negative-log EC50 (pEC50) is 5.00 to 6.00.

In the case of `Cc1cccc(C(F)(F)F)c1COc1cnc(N2CCN(C(N)=O)C(CO)C2)nc1` (stereo not shown), in assay [1], the “CFTR G542X ACTIVITY Fold 10 μM G-418” value is recorded as “A′ (A′ = ≥10X)” and the pEC50 is above 6.00. Besides, in assay [2], the “CFTR R1162X ACTIVITY Fold 10 μM G-418” value is reported as “A′ (A′ = ≥10X)” and the pEC50 was above 6.00.

Take `NC(=O)N1C[C@@H]2CN(c3ncc(OCc4c(Cl)cccc4Cl)cn3)C[C@@H]2C1`: in assay [1], the “CFTR G542X ACTIVITY Fold 10 μM G-418” value is given as “A′ (A′ = ≥10X)” and the pEC50 is 5.00 to 6.00. Moreover, in assay [2], the “CFTR R1162X ACTIVITY Fold 10 μM G-418” value is given as “B′ (B′ = ≥5X to <10X)” and the pEC50 is 5.00 to 6.00.

As to `Cc1cccc(C(F)(F)F)c1COc1cnc(N2CCO[C@H](CO)C2)nc1`, in assay [1], the “CFTR G542X ACTIVITY Fold 10 μM G-418” value is on record as “A′ (A′ = ≥10X)” and the pEC50 was above 6.00. Further, in assay [2], the “CFTR R1162X ACTIVITY Fold 10 μM G-418” value is given as “A′ (A′ = ≥10X)” and the pEC50 is above 6.00.

For `Cc1cccc(OC(F)F)c1COc1ccc(-n2cnc(CO)n2)cc1`, in assay [1], the “CFTR G542X ACTIVITY Fold 10 μM G-418” value is “B′ (B′ = ≥5X to <10X)” and the pEC50 was 5.00 to 6.00. For the same molecule, in assay [2], the “CFTR R1162X ACTIVITY Fold 10 μM G-418” value was “B′ (B′ = ≥5X to <10X)” and the pEC50 was 5.00 to 6.00.
